Source: article PMC4932538, “Alkanediamide-Linked Bisbenzamidines Are Promising Antiparasitic Agents” (Pharmaceuticals, 2016)
Like-named read-outs stand apart in the source and are kept apart here.

Assays:
[1] = tested on: T. b. brucei Lab 110 EATRO (pentamidine-sensitive); experiment: In vitro antitrypanosomal activity, T.b. brucei Lab 110 EATRO; format: cell-based, Trypanosoma brucei brucei; settings: Trypanosoma brucei; Table S1; from IC50 of Table 1; read-out: pIC50 T.b. brucei (converted)
Protocol: (§5) The in vitro assays with the two isolates of T. brucei were conducted according to previously described procedures [14].

[2] = tested on: T. b. rhodesiense KETRi 243 (melarsoprol, pentamidine- and diminazene diaceturate-resistant); experiment: In vitro antitrypanosomal activity, T.b. rhodesiense KETRI 243; format: cell-based, Trypanosoma brucei rhodesiense; settings: Trypanosoma brucei, RHODESIENSE; Table S1; from IC50 of Table 1; read-out: pIC50 T.b. rhod (converted)
Protocol: (§6) The anti-T. cruzi activity was determined using intracellular amastigote forms of T. cruzi Tulahuen strain C2C4 in rat skeletal myoblasts (L6 cells) as described previously [24]. The anti-L. donovani activity was determined using the amastigotes of L. donovani strain MHOM-ET-67/L82 as described previously [24]. […] The cytotoxicity assays against rat skeletal myoblast L6-cells were performed as described previously [24].

[3] = tested on: intracellular amastigote forms of T. cruzi Tulahuen strain C2C4 in rat skeletal myoblasts (L6 cells); experiment: In vitro anti-T. cruzi activity; format: cell-based, Trypanosoma cruzi; settings: Trypanosoma cruzi, TULAHUEN, L6; average of at least two determinations
Protocol: as §6

[4] = tested on: amastigotes of L. donovani strain MHOM-ET-67/L82; experiment: In vitro anti-L. donovani activity; format: cell-based, Leishmania donovani; settings: Leishmania donovani; average of at least two determinations
Protocol: as §6

[5] = tested on: P. falciparum K1 (chloroquine-resistant); experiment: In vitro anti-plasmodial activity, K1; format: cell-based, Plasmodium falciparum; settings: Plasmodium falciparum, K1
Protocol: as §6

[6] = tested on: rat skeletal myoblast L6-cells; experiment: Cytotoxicity against L6 cells; format: cell-based; settings: Rattus norvegicus, L6; cytotoxicity; read-out: IC50 L6 Cells
Protocol: as §6

[7] = tested on: poly(dA-dT); experiment: DNA thermal melting with poly(dA-dT); format: binding; settings: 1:5 compound to DNA base pair ratio; mean of at least two determinations
Protocol: (§1) In addition to the determination of the potency of the synthesized compounds against different strains of cell lines (Table 1), thermal melting experiments of these compounds were also conducted with poly(dA-dT) and calf thymus DNA (Table S1, supplementary file). […] The weaker binding to DNA (lower ΔTm values) compared to pentamidine might be attributed to the lower lipophilicity and higher PSA properties of these compounds since they would be expected to bind less favorably in the less polar environment of the minor grove of DNA as was reported for the aza-analogues of furamidine. […] Therefore, ability of these compounds to act at other potential targets cannot be ruled out.
(§2) The DNA binding affinity of the tested compounds was determined by measuring the change in mid-point of the thermal denaturation curves for a 1:5 compound to DNA base pair ratio as described previously. Each Tm value reported in Table S1 (supplementary file) represents the mean of at least two experimental determinations.

[8] = tested on: calf thymus DNA; experiment: DNA thermal melting with calf thymus DNA; format: binding; settings: 1:5 compound to DNA base pair ratio; mean of at least two determinations
Protocol: as §1, §2

[9] = tested on: T. b. brucei Lab 110 EATRO (pentamidine-sensitive); set-up: method as in PMID 19736009; settings: strain Lab 110; average of at least two determinations; cited from earlier work
[10] = set-up: method as in PMID 24036514; settings: incubation in vitro with mouse liver microsomes; cited from earlier work
[11] = tested on: P. falciparum NF54 (chloroquine-sensitive); experiment: In vitro anti-plasmodial activity, NF54; format: cell-based, Plasmodium falciparum; settings: Plasmodium falciparum, NF54; chloroquine-sensitive strain; read-out: IC50 P. falcip NF54
[12] = tested on: T.b. brucei Lab 110 EATRO; experiment: In vivo trypanocidal activity in mice, Lab 110 EATRO; settings: for curing of infected mice: i.p., 3 days
Protocol: (§3) The compounds were administered via the intraperitoneal route at doses ranging from 1.0 mg/kg/day to 25.0 mg/kg/day for 3 days unless otherwise noted. Pentamidine was used as the reference compound. All three of the tested compounds were effective in curing mice infected with the Lab 110 EATRO or KETRI 2002 strains at several doses.
(§4) The in vivo studies were conducted according to the procedures described previously.

[13] = tested on: T.b. rhodesiense KETRI 2002; experiment: In vivo trypanocidal activity in mice, KETRI 2002; settings: for curing of infected mice: KETRI 2002, i.p., 3 days; for Mean Survival: KETRI 2002, 10, 15, 25 mg/kg/day i.p. for 3 days (all doses)
Protocol: as §3, §4

[14] = tested on: T.b. rhodesiense KETRI 2538; experiment: In vivo trypanocidal activity in mice, KETRI 2538; settings: for Mean Survival: KETRI 2538; for curing of infected mice: drug-resistant KETRI 2538, i.p., 3 days
Protocol: as §3, §4

[15] = tested on: T.b. rhodesiense KETRI 1992; experiment: In vivo trypanocidal activity in mice, KETRI 1992; settings: KETRI 1992
[16] = tested on: both strains of T. brucei and P. falciparum; experiment: In vitro potency against both strains of T. brucei and P. falciparum; format: cell-based, Trypanosoma brucei; Plasmodium falciparum; settings: range over T.b. brucei, T.b. rhodesiense, P. falciparum NF54 and K1
Protocol: as §5

[17] = tested on: T. b. rhodesiense KETRi 243 (melarsoprol, pentamidine- and diminazene diaceturate-resistant); set-up: method as in PMID 19736009; settings: strain KETRI 243; average of at least two determinations; read-out: IC50 T.b. rhod; cited from earlier work
[18] = tested on: Pneumocystis; set-up: method as in PMID 16801410; settings: 20 mg/kg and 40 mg/kg, cited from earlier work
[19] = tested on: hemozoin formation; set-up: method as in PMID 15115412; settings: micromolar concentrations, ex vivo; cited from earlier work
[20] = human, in vivo; cited from earlier work
[21] = Table S1, from IC50 of Table 1, read-out: pIC50 P. falcip K1 (converted)
[22] = chloroquine-resistant strain, read-out: IC50 P. falcip K1

Row | Compound | IC50 [1] [nM] | IC50 [2] [nM] | IC50 [3] [nM] | IC50 [4] [nM] | IC50 [5, 21] [nM] | IC50 [5, 22] [nM] | IC50 [6] [nM] | Thermal Melting ΔTm Poly(dA-dT) [7] [C] | Thermal Melting ΔTm CT-DNA [8] [C] | IC50 [9] [nM] | IC50 [11] [nM] | Mean Survival ([12]; 1.0 mg/kg/day i.p. for 3 days) [days] | No. of Mice Cured/Total (%) ([12]; 1.0 mg/kg/day i.p. for 3 days) | Mean Survival ([12]; 2.5 mg/kg/day i.p. for 3 days) [days] | No. of Mice Cured/Total (%) ([12]; 2.5 mg/kg/day i.p. for 3 days) | Mean Survival ([12]; 5 mg/kg/day i.p. for 3 days) [days] | Mean Survival ([12]; 10 mg/kg/day i.p. for 3 days) [days] | Mean Survival ([12]; 15 mg/kg/day i.p. for 3 days) [days] | curing of infected mice [12] | curing of infected mice [13] | also measured
1 | NC(=NO)c1ccc(NC(=O)CCCC(=O)Nc2ccc(C(N)=NO)cc2)cc1 [Compound 4] | 7290 | 10000 | > 100000 | > 100000 | 3160 | 3160 | > 100000 | 0.0 | 0.7 | 7300 | – | – | – | – | – | – | – | – | – | – | metabolism of the amidoxime moiety to the amidine function [10]: readily metabolized
2 | N=C(N)c1ccc(NC(=O)CCCC(=O)Nc2ccc(C(=N)N)cc2)cc1 [Compound 5] | 8.99 | 95.9 | > 100000 | > 100000 | 2 | 2 | 69000 | 11.4 | 5.6 | 9 | 2 | 6.0 | 0/3 | 11.3 | 0/3 | 10 | >30 | >30 | highly effective | highly effective | Mean Survival [13]: >30 days; Mean Survival ([14]; 10, 15, 25 mg/kg/day i.p. for 3 days (all doses)): >30 days; curing of infected mice [14]: highly efficacious; Mean Survival ([15]; 10 mg/kg/day i.p. for 3 days): 17.5 days; No. of Mice Cured/Total (%) ([15]; 10 mg/kg/day i.p. for 3 days): 0/3; Mean Survival ([15]; 15 mg/kg/day i.p. for 3 days): 14.5 days; No. of Mice Cured/Total (%) ([15]; 15 mg/kg/day i.p. for 3 days): 0/3; Mean Survival ([15]; 25 mg/kg/day i.p. for 3 days): 25 days; No. of Mice Cured/Total (%) ([15]; 25 mg/kg/day i.p. for 3 days): 0/3; IC50 [16]: 1 to 96 nM; IC50 [17]: 96 nM; survival versus pentamidine treated mice ([18]; same doses of pentamidine): improved survival curves; reductions in burden [18]: > 1000 fold; interference with hemozoin formation [19]: interfere with hemozoin formation
3 | N=C(N)c1ccc(NC(=O)CCCCC(=O)Nc2ccc(C(=N)N)cc2)cc1 [Compound 6] | 3 | 2 | > 100000 | > 100000 | 18 | 18 | > 100000 | 14.4 | 8.7 | 3 | 4 | 6.7 | 0/3 | 10.0 | 0/3 | >30 | >30 | >30 | highly effective | highly effective | Mean Survival [13]: >30 days; Mean Survival ([14]; 5, 10, 15 mg/kg/day i.p. for 3 days (all doses)): >30 days; curing of infected mice [14]: highly efficacious; IC50 [16]: 1 to 96 nM; IC50 [17]: 2 nM
4 | CONC(=N)c1ccc(-c2ccc(-c3ccc(C(=N)NOC)cc3)o2)cc1.O=C(O)/C=C\C(=O)O [parafuramidine maleate] | – | – | – | – | – | – | – | – | – | – | – | – | – | – | – | – | – | – | – | – | toxicity that halted development [20]: nephrotoxicity
